What was measured:
bovine cholinesterase = target: T1, bovine cholinesterase (Bos taurus, UniProt P23795); assay: Cholesterinase placeholder; format: biochemical; conditions: for Cholinesterase IC50 (50% inhibiting concentration), after oxidation: after oxidation with peracetic acid in benzene (75°, 20 minutes) to the corresponding monothiophosphate, bovine cholinesterase, 35° C., 30 minutes
T1 construct: Ellman test with acetylthiocholine
Experimental: The insecticidal effectiveness of organophosphorus compounds is generally attributed to their inhibition of the cholinesterase enzyme. This inhibiting potency is usually expressed as the concentration of the compound which will reduce the activity of the enzyme by 50%, i.e. […]. The […] values of several cis- and trans-S-propenyl dialkyl dithiophosphates were determined to estimate the relative insecticidal potential of the geometric isomer pairs.
Test Method: To a solution of 0.2 unit of bovine cholinesterase in 2.97 ml of a buffer solution containing 11.15 g of disodium hydrogen phosphate dodecahydrate and 1.81 g of potassium dihydrogen phosphate per liter of water, 0.03 ml of a solution of the dithiophosphate adduct in benzene was added. This mixture was then incubated in a water bath at 35° C. for 30 minutes. One ml of a solution containing 100 mg of 5,5'-dithiobis-(2-nitrobenzoic acid), 100 mg of acetylthiocholine iodide, and 75 ml of the above buffer solution in sufficient water to make 200 ml was then added and the mixture again incubated in a water bath at 35° C. for 30 minutes more. The amount of inhibition of bovine cholinesterase was then determined from the absorbance of this solution at 420 millimicrons. By using a series of solutions of the test chemical at various concentrations in acetone, the concentration needed for 50% inhibition was determined.
The oxidation was carried out with peracetic acid in benzene solution at 75° for 20 minutes. After the removal of the excess peracetic acid, the benzene solution was used for enzyme inhibition as described above.
The median inhibiting concentrations for the cis- and trans-S-propenyl dimethyl and diethyl dithiophosphates are listed in Table II. Data on S-vinyl dimethyl dithiophosphate are also tabulated for comparison.

two spotted spider mite = assay: Systemic miticidal action on potted bean plants (soil treatment); format: in vivo; conditions: 20 ml of aqueous emulsion containing 0.05% of the chemical applied to soil, 5 days
Experimental: For this purpose, a systemic pesticide test on mites was chosen as an example.
Test Method: Potted bean plants were infested with the two spotted spider mite. The soil in the pots was then treated by applying 20 ml of aqueous emulsion containing 0.05% of the chemical. The emulsions were prepared by dissolving the cis- and the trans-compound in acetone and dispersing it in distilled water with Triton X-100. (The emulsifier is an alkylaryl polyether alcohol derived from nonylphenol and ethylene oxide). After the application of the test emulsion, the plants were held for 5 days and then the degree of mite control was rated.

T1 sequence (P23795 31-613): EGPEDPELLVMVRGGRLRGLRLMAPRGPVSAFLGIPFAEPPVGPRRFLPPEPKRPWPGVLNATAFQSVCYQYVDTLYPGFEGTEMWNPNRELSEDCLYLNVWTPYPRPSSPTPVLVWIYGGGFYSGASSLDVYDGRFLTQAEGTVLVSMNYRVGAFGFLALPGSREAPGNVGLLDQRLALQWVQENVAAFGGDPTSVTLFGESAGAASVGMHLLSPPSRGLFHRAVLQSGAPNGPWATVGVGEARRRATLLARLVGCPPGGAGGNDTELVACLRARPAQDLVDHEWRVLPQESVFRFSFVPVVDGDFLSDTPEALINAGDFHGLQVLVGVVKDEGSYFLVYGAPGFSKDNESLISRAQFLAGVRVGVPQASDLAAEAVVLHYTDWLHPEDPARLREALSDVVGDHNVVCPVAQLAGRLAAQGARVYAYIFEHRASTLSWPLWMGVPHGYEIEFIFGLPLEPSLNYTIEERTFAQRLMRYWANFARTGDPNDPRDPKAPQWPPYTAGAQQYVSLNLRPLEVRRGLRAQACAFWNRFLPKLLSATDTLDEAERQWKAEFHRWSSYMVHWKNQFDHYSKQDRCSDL

With `CC=CSP(=S)(OCC)OCC` the “Cholinesterase IC50 (50% inhibiting concentration), after oxidation” value (bovine cholinesterase) was 4.4e-06 mol/L.
With `C/C=C/SP(=S)(OCC)OCC` [Example 1, trans-S-Propenyl O,O'-Diethyl Dithiophosphate] the “Cholinesterase IC50 (50% inhibiting concentration), after oxidation” value (bovine cholinesterase) was 1.6e-07 mol/L.
With `C/C=C\SP(=S)(OCC)OCC` [Example 2, cis-Propenyl O,O'-Diethyl Dithiophosphate] the “Cholinesterase IC50 (50% inhibiting concentration), after oxidation” value (bovine cholinesterase) was 0.00018 mol/L.
`C/C=C\SP(=S)(OC)OC` [Example 3, cis-Propenyl O,O'-Dimethyl Dithiophosphate] was tested, and the “Cholinesterase IC50 (50% inhibiting concentration), after oxidation” value (bovine cholinesterase) was 4.1e-05 mol/L and the “degree of mite control (systemic)” value (two spotted spider mite) was “there were live mites and their nymphs”.
In the case of `C/C=C/SP(=S)(OC)OC` [Example 4, trans-S-Propenyl O,O'-Dimethyl Dithiophosphate], the “Cholinesterase IC50 (50% inhibiting concentration), after oxidation” value (bovine cholinesterase) is reported as 2.8e-08 mol/L, the “cholinesterase inhibition, comparison in words” value (bovine cholinesterase; relative inhibiting potency of isomers, oxidized forms and S-vinyl analog) is reported as “the substitution of the trans-vinylic hydrogen by a methyl group increases the insecticidal potential” and the “degree of mite control (systemic)” value (two spotted spider mite) is reported as “completely free from mites and nymphs”.
With `C=CSP(=S)(OC)OC` [Reference, S-vinyl dimethyl dithiophosphate, reference compound] the “Cholinesterase IC50 (50% inhibiting concentration), after oxidation” value (bovine cholinesterase) was 3.1 × 10^ -6 mole/liter.
